Results taken from patent EP4238581A1, “TARGETED DELIVERY OF OLIGONUCLEOTIDES INTO EUKARYOTIC CELLS USING HYBRID MALTOSE/CYCLODEXTRIN POLYPLEXES” (Technische Universität Dresden e. V., priority 2022, dated 2023).

Tested on: 293T-PSCA cells
Test: Endocytosis inhibitors and GFP transfection by scFv(AM1)-P-BAP hybrid polyplexes
Format: cell-based
Conditions: cells transfected with scFv(AM1)-P-BAP hybrid polyplexes loaded with MC encoding GFP; inhibitor concentration not given
Text: To investigate if a receptor-mediated endocytosis contributes to uptake of scFv-P-BAP hybrid polyplexes clathrin-dependent and clathrin-independent endocytosis was blocked using chlorpromazine and filipin III.

Structure (SMILES): CN(C)CCCN1c2ccccc2Sc2ccc(Cl)cc21 [chlorpromazine]
- fraction of GFP-positive 293T-PSCA cells: significant decrease

Structure (SMILES): CCCCC[C@@H](O)[C@H]1C(=O)O[C@H](C)[C@@H](O)/C=C/C=C/C=C/C=C/C=C(\C)[C@@H](O)C[C@H](O)C[C@H](O)C[C@H](O)C[C@H](O)C[C@H](O)C[C@@H]1O [filipin III]
- fraction of GFP-positive 293T-PSCA cells: significant decrease
